From patent US20030206968A1, “Fungicidal mixtures” (priority 1999, published 2003) come the findings set out here.

Read-outs that look alike come from different tables or passages of the source.

Format in all cases: in vivo
In experiment [1] the test system is Puccinia recondita. The experiment is described as follows: Greenhouse, Puccinia recondita on wheat, 1 day residual. Conditions: Puccinia recondita, read-out: Observed Efficacy; for pest or weed control at 0.06 ppm: dose rate 0.06 ppm; for pest or weed control at 0.25 ppm: dose rate 0.25 ppm; for pest or weed control at 1 ppm: dose rate 1 ppm; for pest or weed control at 4 ppm: dose rate 4 ppm. The source says: The fungicides are applied in single treatments, or in a combination comprising an azolopyrimidine of formula I and a compound selected from the classes (A), (B) and (C) as defined above. The compounds are applied in form of an aqueous spray mix obtained from a concentrated formulation or the technical material.
(§1) 1. Seed is planted in 6 cm diameter plastic pots and maintained in the greenhouse.
(§2) 2. When the primary leaf is fully expanded in the case of cereals or several leaves are present in the case of dicots, formulated test compounds are sprayed with a three nozzle overhead fungicide sprayer to near run-off. Alternatively, a single nozzle overhead track sprayer is used for application of the compounds to cereals at a rate of 200 l/ha. Plants are then allowed to air-dry.
(§3) 3. Inoculation precedes treatment in the case of curative evaluations and follows treatment in case of residual evaluations. For inoculation of powdery mildew disease, plants are set up on greenhouse benches with bottom watering mats and inoculated by dusting them with conidia from infected plants. Between inoculation and treatment for curative evaluations and between treatment and inoculation for residual evaluations, plants are maintained in the greenhouse with bottom watering.
(§4) For inoculation of non-powdery mildew diseases, an aqueous spore suspension of the pathogen is applied to the plant and the plants are kept 1-2 days in a moist infection chamber before being returned to the greenhouse where they are maintained by bottom watering.
(§5) 4. Disease on the foliage as percent leaf area with disease symptoms/signs is evaluated about 7 days after inoculation. In the case of wheat, the tips and bases of the leaves are excluded from the evaluation. [formula]
(§6) 1. Technical compounds are formulated in a solvent/surfactant system consisting of 5% acetone and 0.05% Tween 20 in deionized water. Compounds are dissolved in acetone prior to addition of the water; the Tween 20 can be added through either the acetone or the water. Dilutions are made using the solvent/surfactant system. Formulated compounds are prepared using deionized water.
(§7) 2. Two kinds of controls are included: Plants treated with the solvent/surfactant solution and inoculated (Solvent Blank). Untreated plants which are inoculated (Inoculated Control).
(§8) Assessments of the diseases took place at the indicated day after the application of the compounds. Per cent infected leaf area infected was evaluated. The efficacy of the compounds/compounds mixtures to control the diseases was calculated by using the formula given above under item 4: […]
(§9) Synergy was calculated using the % disease control values of specific treatments for the two COLBY formula given hereinabove
Fungicidal efficacy of the mixture of Azolopyrimidine C+metconazole (1 day residual) against Puccinia recondita on wheat The tank mix was obtained from a SC formulation containing 100 g Azolopyrimidine C per liter and an EC containing 100 g metconazole per liter. […]
Fungicidal efficacy of the mixture of Azolopyrimidine C+fluazinam (1 day residual) against Puccinia recondita on wheat The tank mix was obtained from technical material of Azolopyrimidine C and a SC formulation containing 500 g fluazinam per liter. […]

For another experiment, the system named is Septoria tritici. Description: Field test, Septoria tritici on wheat. The method, then: (§10) The trials are carried out under greenhouse (Examples 1 to 32) or field conditions (Examples 33 to 40) in residual or curative applications. The fungicides are applied in single treatments, or in a combination comprising an azolopyrimidine of formula I and a compound selected from the classes (A), (B) and (C) as defined above. The compounds are applied in form of an aqueous spray mix obtained from a concentrated formulation or the technical material.
For the field study formulated Azolopyrimidine A, B or C and formulated compounds from the classes (A), (B) and (C) were used.
as §8, §9
The compounds are applied according to good agricultural practice in the form of an aqueous spray mix obtained from a concentrated formulation or the technical material at a rate of 400 l/ha. The disease control is evaluated according to the formula given for the greenhouse tests.
Fungicidal efficacy of the mixture of Azolopyrimidine C+metconazole in the field against Septoria tritici on wheat The tank mix was obtained from an EC formulation containing 150 g Azolopyrimidine C per liter and a SL formulation containing 60 g metconazole per liter. The observed and expected efficacies with different rates are given in Table XXXIVa (19 days after application) and Table XXXIVb (25 days after application):
Fungicidal efficacy of the mixture of (S)-Azolopyrimidine C+kresoxim methyl in the field against Septoria tritici on wheat The tank mix was obtained from a SC formulation containing 100 g (S)-Azolopyrimidine C per liter and a WG formulation containing 500 g kresoxim methyl per kg. The observed and expected efficacies with different rates are given in Tables XXXVa (7 days after application), XXXVb (22 days after application), XXXVc (34 days after application), and XXXVd (41 days after application):
Fungicidal efficacy of the mixture of Azolopyrimidine A and different cereal fungicides the field against Septoria tritici on wheat 15 days after application The tank mix was obtained from an SC formulation containing 100 g Azolopyrimidine A per liter and commercially available formulations of metconazole, epoxiconazole or propiconazole, respectively.

Experiment [2] concerns Puccinia recondita. Description: Greenhouse, Puccinia recondita on wheat, 1 day curative, plants sprayed twice, once with each compound. The settings on record: Example 12. The protocol: as §10, §1, §2, §3, §4, §5, §6, §7, §8, §9
Fungicidal efficacy of the mixture of Azolopyrimidine C+kresoxim methyl (1 day curative) against Puccinia recondita on wheat Plants sprayed twice, once with each compound. The tank mixes were obtained from a SC formulation containing 100 g Azolopyrimidine C per liter and a WG containing 500 g kresoxim methyl per kg.

For the next experiment, the system named is Blumeria graminis. Description: Greenhouse, Blumeria graminis on barley, 4 days residual. Conditions: Example 32. The protocol:
as §10, §1, §2, §3, §5, §6, §7, §8, §9
Fungicidal efficacy of the mixture of (S)-Azolopyrimidine C in admixture with Azoxystrobin (4 days residual) against Blumeria graminis on barley. The tank mixes were obtained from technical material of (S)-Azolopyrimidine C and Azoxystrobin.

As for `CC(Nc1c(-c2c(F)cc(F)cc2F)c(Cl)nc2ncnn12)C(F)(F)F` (stereo not drawn) [Azolopyrimidine C, 5-chloro-6-(2,4,6-trifluorophenyl)-7-(1,1,1-trifluoroprop-2-ylamino)-[1,2,4]triazolo[1,5-a]pyrimidine], in the experiment with Puccinia recondita [1] (Example 11, dose rate 2 ppm), the pest or weed control at 2 ppm was 2%. Moreover, the pest or weed control at 8 ppm in the experiment on Puccinia recondita [1] (Example 11, dose rate 8 ppm) is 1%. Moreover, the pest or weed control at 10 ppm in the experiment with Puccinia recondita [1] (Example 11, dose rate 10 ppm) is 3%. The pest or weed control at 25 ppm in the experiment on Puccinia recondita [1] (Example 11, dose rate 25 ppm) was 5%. Moreover, the pest or weed control at 40 ppm in the experiment on Puccinia recondita [1] (Example 11, dose rate 40 ppm) was found to be 10%. Besides, in the experiment with Puccinia recondita [1] (Example 11, dose rate 125 ppm), the pest or weed control at 125 ppm was 20%. In addition, the pest or weed control at 200 ppm with Puccinia recondita [1] (Example 11, dose rate 200 ppm) was found to be 35%. In addition, the pest or weed control at 0.06 ppm in the experiment on Puccinia recondita [1] (Example 13), in the experiment on Puccinia recondita [1] (Example 14), in the experiment with Puccinia recondita [1] (Example 15), in the experiment on Puccinia recondita [1] (Example 19) and in the experiment on Puccinia recondita [1] (Example 21) was 8% each time. The pest or weed control at 0.25 ppm with Puccinia recondita [1] (Example 13) was 41%; in the experiment with Puccinia recondita [1] (Example 15), 49%; with Puccinia recondita [1] (Example 19), 49%. Also, the pest or weed control at 1 ppm in the experiment on Puccinia recondita [1] (Example 13), with Puccinia recondita [1] (Example 14), in the experiment on Puccinia recondita [1] (Example 15), in the experiment with Puccinia recondita [1] (Example 19) and in the experiment on Puccinia recondita [1] (Example 22) was 71% throughout. Besides, the pest or weed control at 4 ppm in the experiment with Puccinia recondita [1] (Example 13), in the experiment on Puccinia recondita [1] (Example 14), in the experiment with Puccinia recondita [1] (Example 15) and in the experiment on Puccinia recondita [1] (Example 19) was 100% throughout. Also, the pest or weed control at 0.86 ppm with Puccinia recondita [1] (Example 20, dose rate 0.86 ppm) was found to be 8%. In addition, the “Observed Efficacy” value in the experiment on Septoria tritici (Example 34, 19 days after application, dose rate 25 g/ha) came to 48%; with Septoria tritici (Example 34, 25 days after application, dose rate 50 g/ha) it was 61%; in the experiment on Septoria tritici (Example 34, 25 days after application, dose rate 75 g/ha) it was 13%.

On to “5-chloro-6-(2,4,6-trifluorophenyl)-7-(1,1,1-trifluoroprop-2-ylamino)-[1,2,4]triazolo[1,5-a]pyrimidine [(S)-Azolopyrimidine C]”, for which the “Observed Efficacy” value with Puccinia recondita [2] (dose rate 25 g/ha) was 25%; in the experiment with Puccinia recondita [2] (dose rate 50 g/ha) it was 66%; in the experiment on Puccinia recondita [2] (dose rate 100 g/ha), 79%; in the experiment with Puccinia recondita [2] (dose rate 200 g/ha), 97%; in the experiment with Puccinia recondita [2] (dose rate 400 g/ha), 99%; in the experiment with Septoria tritici ((S)-Azolopyrimidine C 75 g/ha alone, 41 days after application, field, wheat) it was 92. Further, the “Observed Efficacy” value in the experiment on Septoria tritici (Example 35, 7 days after application, dose rate 25 g/ha) stood at 34%; in the experiment with Septoria tritici (Example 35, 22 days after application, dose rate 25 g/ha), 74%; in the experiment on Septoria tritici (Example 35, 22 days after application, dose rate 100 g/ha), 87%; in the experiment with Septoria tritici (Example 35, 34 days after application, dose rate 50 g/ha) it was 53%; in the experiment on Septoria tritici (Example 35, 34 days after application, dose rate 100 g/ha), 70%; with Blumeria graminis (dose rate 1.6 ppm), 0%. Besides, the “Observed Efficacy” value was 3% in the experiment with Blumeria graminis (dose rate 3.1 ppm); 8% in the experiment on Blumeria graminis (dose rate 6.3 ppm); 17% with Blumeria graminis (dose rate 12.5 ppm); 22% in the experiment with Blumeria graminis (dose rate 25 ppm); 28% in the experiment with Blumeria graminis (dose rate 50 ppm).
